The text below walks through data of patent publication US9969696B2, “Compounds as inhibitor of DNA double-strand break repair, methods and applications thereof” (INDIAN INSTITUTE OF SCIENCE, priority 2012, dated 2018).

The nature of series [1]: Solubility (characterisation data).
Series [2] relates to DNA end joining (NHEJ). In words: NHEJ assay, cell-free extracts prepared from rat testes. The conditions noted are these: cell-free repair system from rat testes; compatible, noncompatible, blunt ends. It counts as biochemical. The procedure:
ATP end-labeled oligomeric DNA substrate (75 bp) containing 4 nt overhangs at 5′ ends (about 2 h at 25° C.). In the case of vehicle control, DMSO is used. […] The reaction products are purified and resolved on about 8% denaturing polyacrylamide gel.
FIG. 2 depicts the NHEJ assay and study of joining efficiency. A. Schematic representation of NHEJ assay and substrates containing DSBs. B. Comparison of the effect of potential Ligase IV inhibitors on DNA end joining. The joined products are indicated. “M” represents [g-32 ? P] ATP end-labeled 50 by ladder. C. Quantification of the joining efficiency. […] “PSLU” is “photostimulated luminescence unit”. […] Products are resolved on 1% agarose gel and visualized. Ethidium bromide is used as a positive control for the intercalation assay.
The reaction products are resolved on 8% denaturing PAGE. “M” represents [γ-^32P]ATP end-labeled 50 by ladder. […] “M” is a 2 log DNA ladder.
A. Western blotting showing presence of Ligase IV/XRCC4 in eluted fractions. W is wash, 1 and 2 are different fractions. […] Concentrations of inhibitors used are indicated. For other details, FIG. 4 legend can be referred. C. […] Radiolabeled oligomeric DNA substrates containing 5′ compatible termini are then added to the reaction along with increasing concentrations of purified Ligase IV/XRCC4 complex (30, 60 and 120 fmol) and products are resolved on a PAGE. F. Bar diagram representing quantification of the complementation experiment performed on 5′-5′ and 5′-3′ noncomplementary ends. In all panels quantification of EJ based on 3 independent experiments is represented as mean±SEM.

Consider `Nc1nc(S)nc(O)c1/N=C/c1ccc(Cl)cc1` [Compound 2, (E)-5-(4-chlorobenzylideneamino)-6-amino-2-mercaptopyrimidin-4-ol], for which the melting point is above 300 °C. In series [1], the “Solubility in dimethyl formamide (DMF), dimethyl sulfoxide (DMSO)” value (“Solubility in dimethyl formamide (DMF)” below) was “soluble”; the “Solubility in chloroform (CHCl3)” value is on record as “Insoluble”; the Solubility in ethanol entry was “Partially soluble”.
The compound `Nc1nc(S)nc(O)c1/N=C/c1ccc([N+](=O)[O-])cc1` [Compound 3, (E)-5-(4-nitrobenzylideneamino)-6-amino-2-mercaptopyrimidin-4-ol] returned a melting point above 320 °C. Besides, in series [1], the “Solubility in dimethyl formamide (DMF)” value was “soluble”; the “Solubility in chloroform (CHCl3)” value was “Insoluble”; the Solubility in ethanol entry is recorded as “Partially soluble”.
In turn, `Nc1nc(S)nc(O)c1/N=C/c1ccc(O)cc1` [Compound 4, (E)-5-(4-hydroxybenzylideneamino)-6-amino-2-mercaptopyrimidin-4-ol] had a melting point above 320 °C. Moreover, in series [1], the “Solubility in dimethyl formamide (DMF)” value is listed as “soluble”; the “Solubility in chloroform (CHCl3)” value is given as “Insoluble”; the Solubility in ethanol result was “Partially soluble”.
`COc1cc(/C=N/c2c(N)nc(S)nc2O)cc(OC)c1OC` [Compound 5, (E)-5-(3,4,5-trimethoxybenzylideneamino)-6-amino-2-mercaptopyrimidin-4-ol] showed a melting point of 315 °C. Further, in series [1], the “Solubility in dimethyl formamide (DMF)” value is recorded as “soluble”; the “Solubility in chloroform (CHCl3)” value is “Insoluble”; the Solubility in ethanol result is on record as “Partially soluble”.
Turning to `Oc1nc(S)nc(/N=C/c2ccc(Cl)cc2)c1/N=C/c1ccc(Cl)cc1` [Compound 6, (5E,6E)-5,6-bis(4-chlorobenzylideneamino)-2-mercaptopyrimidin-4-ol], the melting point is 260 to 262 °C. Besides, in series [1], the “Solubility in dimethyl formamide (DMF)” value is listed as “soluble”; the “Solubility in chloroform (CHCl3)” value is recorded as “Insoluble”; the Solubility in ethanol entry is “Partially soluble”.
In turn, `Cc1ccc(/C=N/c2nc(S)nc(O)c2/N=C/c2ccc(C)cc2)cc1` [Compound 7, (5E,6E)-5,6-bis(4-methylbenzylideneamino)-2-mercaptopyrimidin-4-ol] had a melting point of 181 to 183 °C. Moreover, in series [1], the “Solubility in dimethyl formamide (DMF)” value was “soluble”; the “Solubility in chloroform (CHCl3)” value was “Insoluble”; the Solubility in ethanol result is on record as “Partially soluble”.
In turn, `Oc1nc(S)nc2nc3[nH]c4ccccc4c3nc12` [Compound 8, 2-mercapto-10H-indolo[3,2-g]pteridin-4-ol] registered a melting point above 320 °C. Also, in series [1], the “Solubility in dimethyl formamide (DMF)” value is listed as “soluble”; the “Solubility in chloroform (CHCl3)” value is “Insoluble”; the Solubility in ethanol entry is recorded as “Partially soluble”.
In the case of `O=[N+]([O-])c1ccc(/C=N/c2nc(S)nc(O)c2/N=C/c2ccc([N+](=O)[O-])cc2)cc1` [Compound 9, (5E,6E)-5,6-bis(4-nitrobenzylideneamino)-2-mercaptopyrimidin-4-ol], in series [1], the “Solubility in dimethyl formamide (DMF)” value is given as “soluble”; the “Solubility in chloroform (CHCl3)” value is recorded as “Insoluble”; the Solubility in ethanol entry was “Partially soluble”.
For the compound `COc1ccc(/C=N/c2nc(S)nc(O)c2/N=C/c2ccc(OC)cc2)cc1` [Compound 10, (5E,6E)-5,6-bis(4-methoxybenzylideneamino)-2-mercaptopyrimidin-4-ol], in series [1], the “Solubility in dimethyl formamide (DMF)” value is listed as “soluble”; the “Solubility in chloroform (CHCl3)” value is “Insoluble”; the Solubility in ethanol entry is given as “Partially soluble”.
Consider `COc1cc(/C=N/c2nc(S)nc(O)c2/N=C/c2cc(OC)c(OC)c(OC)c2)cc(OC)c1OC` [Compound 11, (5E,6E)-5,6-bis(3,4,5-trimethoxybenzylideneamino)-2-mercaptopyrimidin-4-ol], for which, in series [1], the “Solubility in dimethyl formamide (DMF)” value was “soluble”; the “Solubility in chloroform (CHCl3)” value is “Insoluble”; the Solubility in ethanol result is “Partially soluble”.
`Oc1ccc(/C=N/c2nc(S)nc(O)c2/N=C/c2ccc(O)cc2)cc1` [Compound 12, (5E,6E)-5,6-bis(4-hydroxybenzylideneamino)-2-mercaptopyrimidin-4-ol]: in series [1], the “Solubility in dimethyl formamide (DMF)” value was “soluble”; the “Solubility in chloroform (CHCl3)” value was “Insoluble”; the Solubility in ethanol entry is “Partially soluble”.
Take `Cc1ccc(/C=N/c2c(N)nc(S)nc2O)cc1` [Compound 13, (E)-5-(4-methylbenzylideneamino)-6-amino-2-mercaptopyrimidin-4-ol]: in series [1], the “Solubility in dimethyl formamide (DMF)” value is on record as “soluble”; the “Solubility in chloroform (CHCl3)” value is “Insoluble”; the Solubility in ethanol entry is “Partially soluble”.
`COc1ccc(/C=N/c2c(N)nc(S)nc2O)cc1` [Compound 14, (E)-5-(4-methoxybenzylideneamino)-6-amino-2-mercaptopyrimidin-4-ol]: in series [1], the “Solubility in dimethyl formamide (DMF)” value is on record as “soluble”; the “Solubility in chloroform (CHCl3)” value is reported as “Insoluble”; the Solubility in ethanol result is given as “Partially soluble”.
`[Na+].[O-]c1nc(S)nc(/N=C/c2ccccc2)c1/N=C/c1ccccc1` [Compound 15, Sodium 5,6-bis((E)-benzylideneamino)-2-mercaptopyrimidin-4-olate]: in series [2], the “Inhibition of end joining (EJ) of various types of DSBs” value was “inhibits end joining (EJ) irrespective of type and configurations of DSB”.

What is called melting point is the temperature, or range, at which the solid turns liquid.
